Measured values from patent US5597703A, “Methods for determing cholesterol oxidase activity in an aqueous test sample, determining whether a test compound is capable of inhibiting cholesterol oxidase activity and determining the degree of cholesterol oxidase inhibitory activity” (priority 1994, dated 1997).

Test system: cholesterol oxidase
Assay: estimating the toxicity of chemical compounds by presence or absence of sterol domain fade-out in a monolayer on cholesterol oxidase aqueous solution
Format: biochemical
Conditions: cholesterol oxidase 5×10^-3 unit/ml
[1] = 1 mM test compound, monolayer DMPC 0.68 mM / cholesterol 0.3 mM / NBD-PC 0.02 mM

Description: In the first embodiment of the method for estimating the toxicity of chemical compounds, there is used cholesterol oxidase HEPES buffer solution of 5×10^-3 unit/ml as the cholesterol oxidase aqueous solution 12. Herein, HEPES means N-2-hydroxyethylpiperazine-N'-2-ethane sulfonic acid which has 0.1 of ionic strength and 7.45 of pH. […] As the monolayer spread solution 13, there is used a solution consisting of 0.68 mM of DMPC (L-α-dimyristoylphosphatidylcholine), 0.3 mM of cholesterol and 0.02 mM of fluorescent dye labeled phospholipid NBD-PC (1-palmitoyl-2-[12-[(7-nitro-2-1,3-benzoxadiazol-4-yl) amino]dodecanoyl]phosphatidylcholine) chloroform. The monolayer spread solution 13 is dropped in the amount of 9.4 ml thereof onto a surface (42.6 cm^2) of the cholesterol oxidase aqueous solution 12 in which 1 mM of zinc chloride is dissolved, and then there is immediately formed a monolayer on the surface.
In the second embodiment, there is used cholesterol oxidase HEPES buffer solution of 5×10^-3 unit/ml as the cholesterol oxidase aqueous solution 12. In the HEPES solution is dissolved 1 mM of calcium chloride the toxicity of which is to be estimated. As the monolayer spread solution 13, there is used a solution consisting of 0.68 mM of DMPC (L-α-dimyristoylphosphatidylcholine), 0.3 mM of cholesterol and 0.02 mM of fluorescent dye labeled phospholipid NBD-PC (1-palmitoyl-2-[12-[(7-nitro-2-1,3-benzoxadiazol-4-yl)amino]dodecanoyl]phosphatyzircoline) chloroform. Similarly to the first embodiment, the monolayer spread solution 13 is dropped onto a surface of the cholesterol oxidase aqueous solution 12, and then there is immediately formed a monolayer on the surface.
In the third embodiment, there is used cholesterol oxidase HEPES buffer solution of 5×10^-3 unit/ ml as the cholesterol oxidase aqueous solution 12. […] As the monolayer spread solution 13, there is used a solution consisting of 0.68 mM of DPPC (L-α-dipalmitoylphosphatidylcholine), 0.3 mM of dihydrocholesterol and 0.02 mM of fluorescent dye labeled phospholipid NBD-PE (1-palmitoyl-2-[12-[(7-nitro-2-1,3-benzoxadiazol-4-yl) amino]dodecanoyl]phosphatidylethanolamine) chloroform. Similarly to the first embodiment, there is formed a monolayer on a surface of the cholesterol oxidase aqueous solution 12 by dropping the monolayer spread solution 13 as above mentioned on the surface.
In the fourth embodiment, there is used cholesterol oxidase HEPES buffer solution of 5×10^-3 unit/ml as the cholesterol oxidase aqueous solution 12. […] As the monolayer spread solution 13, there is used a solution consisting of 0.68 mM of DPPE (L-α-tdipalmitoylphosphatidylethanolamine), 0.3 mM of pregnenolone and 0.02 mM of fluorescent dye labeled phospholipid TR-DPPE (N-(texasredsulfonyl)-L-α-dipalmitoylphosphatidylethanolamine) chloroform.

SMILES	toxicity to cholesterol oxidase (sterol domain fade-out 30 minutes after monolayer formation) [1]	further results
[Ca+2].[Cl-].[Cl-] [calcium chloride]	not toxic to cholesterol oxidase	–
CCCCCCCCCCCCOS(=O)(=O)[O-].[Na+] [SDS, sodium dodecyl sulfate]	–	toxicity to cholesterol oxidase (sterol domain fade-out 30 minutes after monolayer formation) (0.1 mM test compound, monolayer DPPE 0.68 mM / pregnenolone 0.3 mM / TR-DPPE 0.02 mM): has the toxicity to cholesterol oxidase
[Cl][Hg][Cl] [mercury (II) chloride]	–	toxicity to cholesterol oxidase (sterol domain fade-out 30 minutes after monolayer formation) (1 mM test compound, monolayer DPPC 0.68 mM / dihydrocholesterol 0.3 mM / NBD-PE 0.02 mM): has the toxicity to cholesterol oxidase
[Cl-].[Cl-].[Zn+2] [zinc chloride]	toxic to cholesterol oxidase	–
